In patent US11512353B2, “Method to predict response to neuropsychiatric drugs using variation in the serotonin 7 receptor (HTR7) gene” (The Regents of the University of California, priority 2018, dated 2022):

Tests used:
HTR7 [1] = target: HTR7 (Mus musculus, UniProt P32304); conditions: in vivo; cited from earlier work
HTR7 [2] = target: HTR7 (Homo sapiens, UniProt P34969); conditions: cited from earlier work
[3] = tested on: outpatients with moderate to severe unipolar depression; test: Prospective GENDEP cohort: association of rs7905446 genotype with antidepressant remission; format: in vivo, human; conditions: TT vs TG/GG, logistic regression adjusted for sex, age and center ID, week 12, remission MADRS≤10
Procedure: Statistical analysis. The association between drug response and allelic SNPs identified from pooled-sequencing were performed using logistic regression (PLINK version 1.9).. The association between drug response and […] genotype was performed using logistic regression within Caucasian population. χ^2 tests were used to compare the sex distribution between responder and non-responder. Group differences were analyzed using Student's T-test. […] Replication study II in the Genome-based Therapeutic Drugs for Depression ([…]) study. […] is a multicenter part-randomized open-label pharmacogenetic study of 811 outpatients with moderate to severe unipolar depression diagnosed according to DSM-IV and established in the semi-structured SCAN interview. Patients were aged 19 to 72 years with European ancestry for at least two generations. Patients with personal and family history of schizophrenia or bipolar affective disorder and current dependence on alcohol or drugs were excluded from the study. […] Patients with contraindications for one of the drugs were allocated nonrandomly to the other antidepressant. […] The study was approved by ethics boards of all the participating centers. All participants provided written informed consent.

[4] = target: norepinephrine transporter (Homo sapiens, UniProt P23975); conditions: cited from earlier work
Chain of norepinephrine transporter (P23975 whole entry, species assumed): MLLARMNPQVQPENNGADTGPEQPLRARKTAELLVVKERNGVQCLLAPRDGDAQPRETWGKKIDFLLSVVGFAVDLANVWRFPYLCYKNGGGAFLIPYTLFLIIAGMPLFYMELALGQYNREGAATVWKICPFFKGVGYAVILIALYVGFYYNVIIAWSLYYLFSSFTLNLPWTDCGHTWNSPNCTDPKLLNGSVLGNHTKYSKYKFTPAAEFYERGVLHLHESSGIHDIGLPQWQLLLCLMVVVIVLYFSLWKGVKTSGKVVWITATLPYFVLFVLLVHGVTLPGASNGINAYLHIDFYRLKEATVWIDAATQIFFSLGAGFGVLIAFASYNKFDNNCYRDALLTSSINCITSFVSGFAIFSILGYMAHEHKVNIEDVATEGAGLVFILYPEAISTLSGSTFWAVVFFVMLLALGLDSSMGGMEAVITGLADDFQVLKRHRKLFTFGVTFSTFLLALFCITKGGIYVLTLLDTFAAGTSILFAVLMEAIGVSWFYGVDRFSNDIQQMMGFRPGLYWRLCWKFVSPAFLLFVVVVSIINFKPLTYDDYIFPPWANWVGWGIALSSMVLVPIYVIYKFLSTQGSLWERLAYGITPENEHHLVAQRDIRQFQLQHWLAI

[5] = tested on: subjects with BD, MDD or SABP diagnosis; test: Retrospective cohort: association of rs7905446 genotype with self-reported SSRI response (logistic regression); format: in vivo, human; conditions: TT vs TG/GG, TT associated with poor response, logistic regression adjusted for sex and age, Caucasian subjects
Procedure: SNP genotyping. Genotyping of rs7905446 (T/G) was performed using TaqMan SNP genotyping assay on 7900HT Fast Real-Time PCR System (Thermo Fisher Scientific, Waltham, Mass., USA) as previously described. The assay included negative controls and was run with the following condition: 95° C. for 10 min followed by 40 cycles of 92° C. for 15 s and 60° C. for 1 min. The genotyping success rate was >95%. Twenty percent of the samples were genotyped in duplicate, with 100% reproducibility.
Statistical analysis. The association between drug response and allelic SNPs identified from pooled-sequencing were performed using logistic regression (PLINK version 1.9).. The association between drug response and rs7905446 genotype was performed using logistic regression within Caucasian population. χ^2 tests were used to compare the sex distribution between responder and non-responder. Group differences were analyzed using Student's T-test. P value<0.05 were considered statistically significant.
Subjects. All subjects (n=497) were ascertained as part of several cohorts collected for genetic studies of BD. Subjects were identified through VA and UCSD clinics, as well as, advertisement and patient support groups. […]
Assessment of SSRI response. […] Subject's response to SSRI's over their lifetime was assessed based on self-reporting. […]

HTR7 [6] = conditions: chronic treatment; cited from earlier work

Chain of HTR7 (Homo sapiens, UniProt P34969) (P34969 whole entry): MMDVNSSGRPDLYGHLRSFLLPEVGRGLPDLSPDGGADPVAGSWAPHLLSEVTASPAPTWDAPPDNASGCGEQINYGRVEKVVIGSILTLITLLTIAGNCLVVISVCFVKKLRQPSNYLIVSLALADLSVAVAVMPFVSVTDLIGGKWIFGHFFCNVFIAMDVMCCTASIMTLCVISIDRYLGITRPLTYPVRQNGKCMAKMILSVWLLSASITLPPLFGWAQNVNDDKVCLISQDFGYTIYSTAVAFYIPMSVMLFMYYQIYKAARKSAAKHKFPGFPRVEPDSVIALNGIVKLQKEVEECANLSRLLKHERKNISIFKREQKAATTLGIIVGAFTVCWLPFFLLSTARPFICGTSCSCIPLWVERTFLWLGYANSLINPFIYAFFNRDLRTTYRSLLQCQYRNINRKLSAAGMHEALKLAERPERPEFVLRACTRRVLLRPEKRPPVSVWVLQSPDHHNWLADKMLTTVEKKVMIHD
Chain of HTR7 (Mus musculus, UniProt P32304) (P32304 whole entry): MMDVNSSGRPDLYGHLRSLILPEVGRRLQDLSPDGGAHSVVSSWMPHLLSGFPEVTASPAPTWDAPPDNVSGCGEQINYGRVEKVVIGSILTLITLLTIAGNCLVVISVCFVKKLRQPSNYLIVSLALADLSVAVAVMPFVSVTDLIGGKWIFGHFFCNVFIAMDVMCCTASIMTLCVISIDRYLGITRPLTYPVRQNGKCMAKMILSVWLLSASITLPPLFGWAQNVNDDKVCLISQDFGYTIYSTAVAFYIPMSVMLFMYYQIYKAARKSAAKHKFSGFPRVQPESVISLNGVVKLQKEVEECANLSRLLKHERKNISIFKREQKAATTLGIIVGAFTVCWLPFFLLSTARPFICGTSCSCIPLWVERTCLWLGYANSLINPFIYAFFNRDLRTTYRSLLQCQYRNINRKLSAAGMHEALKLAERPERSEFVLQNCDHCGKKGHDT

Compound	affinity to HTR7 (HTR7 [2])	also measured
CC1CCN(CC[C@H]2CCCN2S(=O)(=O)c2cccc(O)c2)CC1 [SB-269970]		effects of SSRI and NARI on blockade of HTR7 (HTR7 [1]): potentiate
Clc1ccc2c(c1)C(N1CCNCC1)=Nc1ccccc1O2 [amoxapine, Amoxapine]	high affinity	
CNCCC=C1c2ccccc2CCc2ccccc21 [Nortriptyline, Nortyptiline]		OR, Rs7905446, remitter vs. non-remitter [3]: 0.694
O=C1[C@@H]2[C@H]3CC[C@H](C3)[C@@H]2C(=O)N1C[C@@H]1CCCC[C@H]1CN1CCN(c2nsc3ccccc23)CC1 [lurasidone, Lurasidone]	high affinity	
CCN1CCCC1CNC(=O)c1cc(S(=O)(=O)CC)c(N)cc1OC (stereo not drawn) [amisulpride, Amisulpride]	high affinity	
CN(C)CCC[C@@]1(c2ccc(F)cc2)OCc2cc(C#N)ccc21 [Escitalopram]		OR, Rs7905446, remitter vs. non-remitter [3]: 1.669; effect on norepinephrine transporter [4]: no direct effect
O=C1[C@H]2CCCC[C@H]2C(=O)N1CCCCN1CCN(c2nsc3ccccc23)CC1 [perospirone, Perospirone]	high affinity	
Cc1nc2n(c(=O)c1CCN1CCC(c3noc4cc(F)ccc34)CC1)CCCC2 [risperidone, Risperidone]	high affinity	
Fc1ccc([C@@H]2CCNC[C@H]2COc2ccc3c(c2)OCO3)cc1 [Paroxetine]		OR, Rs7905446, responder vs. non-responder [5]: 5.250
CN(C)CCC=C1c2ccccc2CCc2ccccc21 [amitriptyline, Amitriptyline]	high affinity	
CNCCC(Oc1ccc(C(F)(F)F)cc1)c1ccccc1 (stereo not drawn) [fluoxetine, Fluoxetine]		HTR7 expression (HTR7 [6]): downregulates
